Assay results published in PMC7367873, “Dissecting the sequence determinants for dephosphorylation by the catalytic subunits of phosphatases PP1 and PP2A” (Nature Communications, 2020).

Tested on: GFP-14-3-3β
Assay: GFP-14-3-3β co-IP with LC-MS/MS, untreated GFP-14-3-3β versus GFP control (14-3-3 interactome)
Assay type: binding, human
Conditions: log2 difference; pairwise comparison untreated vs GFP, label-free quantification, 3 replicates each

PP1c: recombinant catalytic subunit of PP1
Difference (log2), untreated vs GFP: 1.715
